Measured values published in patent publication US12582654B2, “Cyano-substituted pyridine and cyano-substituted pyrimidine compound and preparation method therefor and application thereof” (BEIJING SCITECH-MQ PHARMACEUTICALS LIMITED, priority 2019, dated 2026).
One block for each compound: values may come before it.

Experiments:
[1] = biological target: FGFR4 kinase (Homo sapiens, UniProt P22455); assay: Inhibition of FGFR4 kinase activity (ULight-labeled JAK-1 peptide, EU665/EU615 reading); assay type: biochemical; conditions: FGFR4 kinase 3.85 nM, ATP 100 μM, enzymatic reaction 2 hours
Sequence of FGFR4 kinase (P22455 22-802): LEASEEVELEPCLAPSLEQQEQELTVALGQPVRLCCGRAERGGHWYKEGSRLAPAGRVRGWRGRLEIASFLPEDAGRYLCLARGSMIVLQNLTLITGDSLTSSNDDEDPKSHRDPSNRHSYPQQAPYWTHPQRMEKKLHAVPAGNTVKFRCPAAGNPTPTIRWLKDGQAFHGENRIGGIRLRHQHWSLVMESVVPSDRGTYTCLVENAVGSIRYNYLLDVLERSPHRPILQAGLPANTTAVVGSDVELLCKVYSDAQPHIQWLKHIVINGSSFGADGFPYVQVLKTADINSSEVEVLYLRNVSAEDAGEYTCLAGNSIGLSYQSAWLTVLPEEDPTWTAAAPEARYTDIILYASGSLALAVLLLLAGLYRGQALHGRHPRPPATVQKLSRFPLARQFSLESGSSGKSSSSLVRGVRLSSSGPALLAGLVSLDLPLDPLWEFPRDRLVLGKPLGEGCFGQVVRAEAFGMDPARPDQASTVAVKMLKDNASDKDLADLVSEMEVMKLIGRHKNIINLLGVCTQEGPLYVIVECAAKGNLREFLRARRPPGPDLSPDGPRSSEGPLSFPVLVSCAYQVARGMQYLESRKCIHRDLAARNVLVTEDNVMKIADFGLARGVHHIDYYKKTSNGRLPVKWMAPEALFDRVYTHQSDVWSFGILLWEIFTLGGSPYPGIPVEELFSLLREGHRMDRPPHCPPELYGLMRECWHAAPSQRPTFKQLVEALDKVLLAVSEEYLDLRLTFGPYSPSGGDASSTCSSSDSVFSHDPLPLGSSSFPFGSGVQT
Method in brief: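 TR-FRET kinase assay using 3.85 nM FGFR4, 100 μM ATP and 100 nM ULight-JAK-1 (Tyr1023) peptide; 5 min enzyme–compound preincubation, then 2 h at room temperature. Compounds at 11 3-fold dilutions from 2.5 μM down to 0.042 nM, 1% DMSO. IC50 from EU665/EU615 ratio inhibition curves.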

[2] = biological target: FGFR4 V550L kinase (Homo sapiens, UniProt P22455, V550L); assay: Inhibition of FGFR4 V550L mutant kinase activity (ULight-labeled PolyGT, EU665/EU615 reading); assay type: biochemical; conditions: FGFR4 V550L kinase 1 nM, ATP 10 μM, enzymatic reaction 2 hours
Sequence of FGFR4 V550L kinase (P22455 22-802 V550L): as the sequence (P22455 22-802) above, with V529L counted along it
Method in brief: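 TR-FRET kinase assay: 1 nM FGFR4 V550L, 10 μM ATP, 100 nM ULight-PolyGT substrate, 2 h at room temperature after 5 min compound–enzyme preincubation, 1% DMSO. Compound tested as 11-point 3-fold dilution from 2.5 μM to 0.042 nM final. Signal as EU665/EU615 ratio; IC50 fitted from % inhibition.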

[3] = biological target: T1, Ba/F3 ETV6-FGFR4 cells (Homo sapiens, UniProt P22455); assay: Inhibition of cell proliferation (CCK-8), Ba/F3 ETV6-FGFR4 cells; assay type: cell-based; conditions: 72 hours of incubation, read-out: Ba/F3 ETV6-FGFR4 IC50
T1 construct: fused on or other part: N-terminal part of ETV6 (TEL), the oligomerising partner that makes the FGFR4 kinase constitutively active; P41212 (Transcription factor ETV6)
T1 sequence (P22455 whole entry, change not shown, the tested form may be a part): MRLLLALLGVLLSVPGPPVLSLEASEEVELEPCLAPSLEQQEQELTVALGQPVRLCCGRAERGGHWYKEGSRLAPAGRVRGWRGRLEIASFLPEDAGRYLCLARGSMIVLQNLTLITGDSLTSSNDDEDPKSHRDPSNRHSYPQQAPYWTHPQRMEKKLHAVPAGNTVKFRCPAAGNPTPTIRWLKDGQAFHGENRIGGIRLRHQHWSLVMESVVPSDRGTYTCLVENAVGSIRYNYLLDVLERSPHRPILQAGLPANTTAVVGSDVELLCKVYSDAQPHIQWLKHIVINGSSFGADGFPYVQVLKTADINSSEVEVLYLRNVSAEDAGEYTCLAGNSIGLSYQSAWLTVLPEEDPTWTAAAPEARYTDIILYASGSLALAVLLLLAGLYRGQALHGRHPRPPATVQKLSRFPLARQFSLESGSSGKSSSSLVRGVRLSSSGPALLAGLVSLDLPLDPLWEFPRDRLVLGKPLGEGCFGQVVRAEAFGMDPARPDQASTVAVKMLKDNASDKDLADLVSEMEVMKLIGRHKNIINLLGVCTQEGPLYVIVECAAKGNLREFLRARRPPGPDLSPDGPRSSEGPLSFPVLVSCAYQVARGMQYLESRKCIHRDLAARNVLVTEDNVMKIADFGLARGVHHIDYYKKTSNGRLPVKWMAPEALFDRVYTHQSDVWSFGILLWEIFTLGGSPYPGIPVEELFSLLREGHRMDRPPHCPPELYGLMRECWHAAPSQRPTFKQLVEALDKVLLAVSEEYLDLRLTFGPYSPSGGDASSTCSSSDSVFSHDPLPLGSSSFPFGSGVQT
Method in brief: (§1)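 Ba/F3 cells expressing ETV6-FGFR4 or ETV6-FGFR4-V550L exposed for 72 h to 9 concentrations from 4-fold serial dilution (0.25% DMSO final). Viability by CCK-8, OD 450 nm after 1–2 h at 37 °C, relative to untreated and cell-free blanks; IC50 from curve fitting.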

[4] = biological target: T2, Ba/F3 ETV6-FGFR4-V550L cells (Homo sapiens, UniProt P22455, V550L, cells depend on it); assay: Inhibition of cell proliferation (CCK-8), Ba/F3 ETV6-FGFR4-V550L cells; assay type: cell-based; conditions: 72 hours of incubation, read-out: Ba/F3 ETV6-FGFR4-V550L IC50
T2 construct: fused on or other part: N-terminal part of ETV6 (TEL), the oligomerising partner of the fusion; already named as the first entry; P41212 (Transcription factor ETV6)
T2 sequence (P22455 whole entry V550L, the tested form may be a part): as the sequence (P22455 whole entry, change not shown, the tested form may be a part) above, with V550L counted along it
Method in brief: as §1

[5] = test system: FGF19 gene-amplified cells; conditions: cited from earlier work
[6] = mouse and monkey animal models; cited from earlier work
[7] = test system: FGFR; conditions: cited from earlier work
[8] = test system: each subtype of FGFR; conditions: cited from earlier work

IC50 [1]: ≤ 0.01 µM
IC50 [2]: ≤ 0.01 µM
GI50 [3]: ≤ 0.01 µM
GI50 [4]: ≤ 0.01 µM
SMILES: C=CC(=O)Nc1cc(N2CCC(N3CCN(C)CC3)CC2)ccc1Nc1ncc(C#N)c(Nc2ccccc2SC(C)C)n1 [Example 81]

SMILES: C=CC(=O)Nc1cc(N2CCN(CC)CC2)ccc1Nc1cc(N(C)C(=O)Nc2c(Cl)c(OC)cc(OC)c2Cl)ncn1 [Example H3B6527]
antitumor activity against FGF19 gene-amplified cells [5]: strong antitumor activity
bile acid-related adverse effects [6]: without bile acid-related adverse effects

SMILES: CCN(CC)CCCCNc1ncc2cc(-c3cc(OC)cc(OC)c3)c(NC(=O)NC(C)(C)C)nc2n1 [PD173074]
FGFR inhibitory activity [7]: nanomolar inhibitory activity

SMILES: C=CC(=O)N1CCN(CCCn2c(=O)c(-c3c(Cl)c(OC)cc(OC)c3Cl)cc3cnc(NC)nc32)CC1 [PRN-1371]
enzymatic inhibitory activity against each subtype of FGFR [8]: nanomolar levels
